# Test results taken from PubChem BioAssay (NCI).
#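 Assay format: 96-well plates, 48-hour exposure. At the GI50, growth is halved. TGI: concentration producing complete growth inhibition.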
# Key:
# Assay in all cases: inhibition of tumour cell growth, NCI panel, 48 h
# EKVX NSCLC = tested on: EKVX NSCLC
# SR leukemia = tested on: SR leukemia
# MCF7 breast = tested on: MCF7 breast
# IGROV1 ovarian = tested on: IGROV1 ovarian
# HL-60(TB) leukemia = tested on: HL-60(TB) leukemia
# SNB-75 CNS = tested on: SNB-75 CNS
# U251 CNS = tested on: U251 CNS
# NCI-H23 lung = tested on: NCI-H23 lung
# SF-295 CNS = tested on: SF-295 CNS
# OVCAR-4 ovarian = tested on: OVCAR-4 ovarian
# A549 NSCLC = tested on: A549 NSCLC
# MOLT-4 leukemia = tested on: MOLT-4 leukemia
# SK-MEL-28 melanoma = tested on: SK-MEL-28 melanoma
# SF-539 CNS = tested on: SF-539 CNS
# HS 578T breast = tested on: HS 578T breast
# MALME-3M melanoma = tested on: MALME-3M melanoma
# OVCAR-8 ovarian = tested on: OVCAR-8 ovarian
# MDA-MB-435 = tested on: MDA-MB-435
# KM12 colon = tested on: KM12 colon
# SK-OV-3 ovarian = tested on: SK-OV-3 ovarian
# UACC-62 melanoma = tested on: UACC-62 melanoma
# ACHN renal = tested on: ACHN renal
# A498 renal = tested on: A498 renal
# 786-0 renal = tested on: 786-0 renal
# HCT-15 colon = tested on: HCT-15 colon
# RPMI-8226 leukemia = tested on: RPMI-8226 leukemia
# UACC-257 melanoma = tested on: UACC-257 melanoma
# HCC-2998 colon = tested on: HCC-2998 colon
# SK-MEL-2 melanoma = tested on: SK-MEL-2 melanoma
smiles,measurement,setting,value
CC1(C)[C@@H](NOCCCN)CC[C@]2(C)[C@H]3C(=O)C=C4[C@@H]5C[C@](C)(C(=O)O)CC[C@]5(C)CC[C@@]4(C)[C@]3(C)CC[C@@H]12,GI50,EKVX NSCLC,14 µM
same,TGI,EKVX NSCLC,44.8 µM
same,GI50,SR leukemia,2.27 µM
same,TGI,SR leukemia,6.89 µM
same,GI50,MCF7 breast,4.09 µM
same,TGI,MCF7 breast,17.1 µM
same,GI50,IGROV1 ovarian,12.2 µM
same,TGI,IGROV1 ovarian,24.6 µM
same,GI50,HL-60(TB) leukemia,1.89 µM
same,TGI,HL-60(TB) leukemia,4.16 µM
same,GI50,SNB-75 CNS,12 µM
same,TGI,SNB-75 CNS,42.4 µM
same,GI50,U251 CNS,4.49 µM
same,TGI,U251 CNS,25.4 µM
same,GI50,NCI-H23 lung,10.7 µM
same,TGI,NCI-H23 lung,64.7 µM
same,GI50,SF-295 CNS,10.3 µM
same,TGI,SF-295 CNS,29.1 µM
same,GI50,OVCAR-4 ovarian,8.69 µM
same,TGI,OVCAR-4 ovarian,34.8 µM
same,GI50,A549 NSCLC,6.13 µM
same,TGI,A549 NSCLC,33.6 µM
same,GI50,MOLT-4 leukemia,4.63 µM
same,TGI,MOLT-4 leukemia,43 µM
same,GI50,SK-MEL-28 melanoma,4.08 µM
same,TGI,SK-MEL-28 melanoma,13.6 µM
same,GI50,SF-539 CNS,11.9 µM
same,TGI,SF-539 CNS,24.2 µM
same,GI50,HS 578T breast,4.23 µM
same,TGI,HS 578T breast,50 µM
same,GI50,MALME-3M melanoma,4.56 µM
same,TGI,MALME-3M melanoma,16.9 µM
same,GI50,OVCAR-8 ovarian,6.18 µM
same,TGI,OVCAR-8 ovarian,28.7 µM
same,GI50,MDA-MB-435,6.08 µM
same,TGI,MDA-MB-435,23.6 µM
same,GI50,KM12 colon,3.27 µM
same,TGI,KM12 colon,12.6 µM
same,GI50,SK-OV-3 ovarian,17.8 µM
same,TGI,SK-OV-3 ovarian,67 µM
same,GI50,UACC-62 melanoma,3.85 µM
same,TGI,UACC-62 melanoma,14.8 µM
same,GI50,ACHN renal,7.87 µM
same,TGI,ACHN renal,21.2 µM
same,GI50,A498 renal,17.8 µM
same,TGI,A498 renal,43 µM
same,GI50,786-0 renal,6.23 µM
same,TGI,786-0 renal,19.2 µM
same,GI50,HCT-15 colon,3.6 µM
same,TGI,HCT-15 colon,> 100 µM
same,GI50,RPMI-8226 leukemia,2.8 µM
same,TGI,RPMI-8226 leukemia,19.7 µM
same,GI50,UACC-257 melanoma,6.81 µM
same,TGI,UACC-257 melanoma,32.3 µM
same,GI50,HCC-2998 colon,3.59 µM
same,TGI,HCC-2998 colon,13.1 µM
same,GI50,SK-MEL-2 melanoma,5.3 µM
